Results from patent publication US12497359B2, “Acrylamide derivatives” (NRG Therapeutics Ltd, priority 2020, dated 2025).
In brackets after ≈: the same amount, converted by molar mass.

Experiments:
mPTP [1] = experiment: mPTP activity assay in isolated rat brain mitochondria; format: biochemical; conditions: for mPTP Rat brain pIC50: isolated rat brain mitochondria
Experimental: MPTP activity was measured in brain mitochondria freshly isolated from female Sprague Dawley (250 to 300 gram) rats. Anaesthetised rats were perfused in-situ with ˜40 ml cold Dulbecco's Phosphate Buffered Saline (DPBS), then brains dissected and transferred into 30 ml Isolation Buffer (225 mM mannitol, 75 mM sucrose, 1 mM EGTA, adjusted to pH 7.4 with 1 M NaOH). The brain was minced using tweezers and a scalpel into ˜5 mm pieces then transferred into a 50 ml Potterton Dounce homogenization tube on ice containing 10 ml ice-cold isolation buffer (as above with addition of Complete Protease inhibitor; 1 tablet per 50 ml buffer). Homogenisation was carried out using a teflon pestle at 1800 rpm. The slurry was centrifuged at 2000 g for 10 min at 4° C., then the supernatant centrifuged at 12,000 g for 9 min. The pellet was resuspended with a dounce homogeniser in isolation buffer as above but with the addition of 0.02% digitonin, centrifuged at 12,000 g for 11 min and finally resuspended in 5 ml modified isolation buffer (as above but with EGTA reduced to 0.1 mM).
Test compounds were prepared in 384 well polypropylene assay plates as described above for the liver mitochondria assay. A stock mitochondria/Fluo5N assay solution was prepared in 5.6 ml assay buffer (120 mM mannitol, 40 mM MOPS, 5 mM KH2PO4, 60 mM KCl, 10 mM pyruvate, 2 mM malate, 2 mM MgCl2, 20 μM ADP, 1.26 μM oligomycin A, adjusted to pH 7.4) supplemented with Fluo5N pentapotassium salt (2 μM) and 1 ml mitochondria suspension, then transferred (15 μl) into the assay plate containing test compounds and incubated for 10 min at RT. Assay plates were then transferred to a FLIPR Tetra plate reader (Molecular Devices). Dye fluorescence was then measured every 3 sec for a total of 10 min. After 12 sec, a 2.5 μl bolus of Ca2+(75 μM) was added from a source plate containing 675 μM CaCl2 in FLIPR assay buffer. IC50 values for test compounds were calculated using the fluorescence value collected at the 10 min timepoint with % inhibition calculated using the DMSO control and cyclosporin A values at […].

PBS solubility = format: physicochemical; conditions: aqueous buffer, kinetic from dmso stock; PBS pH 7.4, 2 hr at 25° C.
Procedure, shortened: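 Compound from 10 mM DMSO stock was added in duplicate to FaSSIF or PBS (pH 7.4) and shaken at 1100 rpm for 2 hr at 25 °C. After filtration, the filtrate was quantified by LC-MS/MS with internal standard against a standard of known concentration.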

mPTP [2] = experiment: mPTP human platelet mitochondria membrane potential flow cytometry assay; format: cell-based; conditions: stimulated human platelets
Experimental: The mPTP cell based assay was performed using a mitochondria membrane potential flow cytometry assay in stimulated human platelets. Simulation of platelets results in the rapid influx of Ca^2+ across the platelet membrane. The Ca^2+ is then sequestered by mitochondria until the threshold for mPTP opening is reached, at which point the pore opens and the mitochondrial membrane potential is dissipated. Changes in mitochondria membrane potential due to mPTP opening can be quantified in live platelets using standard mitochondrial membrane potential dyes e.g. 3,3′-dihexyloxacarbocyanine Iodide; DiOC6 (3), enabling pharmacological characterisation of mPTP inhibitors.
Fresh human blood (20 ml) was collected from consented donors into 3.2% sodium citrate. Platelets were isolated by centrifugation at 200 g for 20 min at room temperature, then the platelet rich plasma layer transferred to a fresh tube. Prostaglandin 12 is added to the platelets at a final concentration of 20 ng/ml. After centrifugation at 640 g for 10 min, the platelet rich pellet was resuspended in 4 ml HEPES assay buffer (137 mM NaCl, 2.7 mM KCl, 11.9 mM NaHCO3, 0.42 mM NaH2PO4, 1 mM MgCl2, 5.5 mM glucose, 0.1% bovine serum albumin, 10 mM HEPES adjusted to pH 7.4) and stored on ice.
Test compounds were prepared from 10 mM stocks in DMSO and serially diluted in assay buffer containing 0.4% DMSO and 25 μl transferred into a 96 well plate. Platelets were loaded with the mitochondrial membrane potential dye DiOC6 (3) (3,3′-dihexyloxacarbocyanine Iodide; Invitrogen) at 200 nM for 30 min, then 50 μl plated into each well of the 96 well plate containing diluted test compound and incubated for 15 min. Control wells included DMSO (0.1% final concentration) only or 5 μM cyclosporin A. Platelets were then stimulation with the addition of assay buffer (25 μl) containing CaCl2, alpha thrombin and Convulxin to achieve a final concentrations of 2 mM, 0.017 U/ml and 0.167 μg/ml respectively and incubated for 14 min. The reaction was stopped by the addition of 25 μl 15 mM EDTA in assay buffer. The mitochondrial membrane potential across the population of platelets in each well was then quantified by flow cytometry using a Guava easyCyte 5 Benchtop Flow Cytometer with 3000 events per well. The percentage of platelets with a depolarised mitochondrial membrane potential was calculated for each well. A pIC50 for each compound was then calculated using a standard four parameter curve fit model (GraphPad Prism).

Row | SMILES | mPTP Rat brain pIC50 (mPTP [1]) | solubility at 2 h (PBS solubility) | mPTP Human platelets pIC50 (mPTP [2]) | activity in the rat brain mitochondria assay (mPTP [1]; comparison among Example compounds, in words)
1 | COCc1ccccc1NC(=O)/C=C/c1ccc2cn[nH]c2c1 [Example 29, (E)-3-(1H-indazol-6-yl)-N-(2-(methoxymethyl)phenyl)acrylamide] | 6.8 | 29 µM (≈ 8.91 µg/mL) |  | 
2 | C[C@@H]1COc2ccccc2[C@@H]1NC(=O)/C=C/c1ccc2cn[nH]c2c1 (single isomer, unassigned) [Example 15d, (E)-3-(1H-indazol-6-yl)-N-(3-methylchroman-4-yl)acrylamide] | 7.6 | 2 µM (≈ 0.667 µg/mL) |  | 
3 | O=C(/C=C/c1ccc2cn[nH]c2c1)N[C@@H]1CCc2ccccc21 [Example 3, (R,E)-N-(2,3-dihydro-1H-inden-1-yl)-3-(1H-indazol-6-yl)acrylamide] | 7.3 | 2.2 µM (≈ 0.667 µg/mL) | 7.3 | 
4 | C[C@H]1Cc2ccccc2[C@@H]1NC(=O)/C=C/c1ccc2cn[nH]c2c1 (single isomer, unassigned) [Example 14c] | 8.4 | 0.6 µM (≈ 0.19 µg/mL) | 6.8 | highest activity
